Some test systems named below: 786-0 renal; EKVX NSCLC; HL-60(TB) leukemia; HT29 colon; IGROV1 ovarian; KM12 colon; MCF7 breast; NCI/ADR-RES ovarian; SK-MEL-2 melanoma; M14 melanoma.
Experiment in all cases: NCI-60 cell line screen, 48 h

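Tested at 5 concentrations; 48 h exposure; 96-well plates; endpoints linearly interpolated, else capped at highest concentration. Definition used: TGI = concentration required for complete inhibition of growth.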 Bounds are passed on as bounds.

Turning to `CCC[N+](C)(C)CCCNC(=O)c1c(O)c2ccccc2[nH]c1=O`, the TGI in the test with 786-0 renal, in the test on EKVX NSCLC, in the test on HL-60(TB) leukemia, in the test on HT29 colon, with IGROV1 ovarian and in the test with KM12 colon was more than 100 µM in each case. The TGI in the test with MCF7 breast, with NCI/ADR-RES ovarian and with SK-MEL-2 melanoma was more than 100 µM throughout.

Take `Cc1cnc2c(c1)C(=O)N(c1ccc(Oc3ccccc3)cc1)S2(=O)=O`: the TGI in the test on 786-0 renal, with EKVX NSCLC, in the test with HL-60(TB) leukemia, with HT29 colon, in the test on IGROV1 ovarian and in the test on KM12 colon was more than 100 µM throughout. The TGI in the test on M14 melanoma, with MCF7 breast, with NCI/ADR-RES ovarian and with SK-MEL-2 melanoma was more than 100 µM each time.

In the case of `O=C(O)C(Cc1ccccc1)Cc1ccccc1`, the TGI in the test on 786-0 renal, in the test on EKVX NSCLC, in the test on HL-60(TB) leukemia, with HT29 colon, with IGROV1 ovarian and with KM12 colon was more than 100 µM in each case. The TGI in the test with M14 melanoma, with MCF7 breast, in the test on NCI/ADR-RES ovarian and with SK-MEL-2 melanoma was more than 100 µM throughout.

Take `O=C(CCCCCNC(=O)c1ccc(Cl)cc1)NO`: the TGI with 786-0 renal is 39 µM; in the test with EKVX NSCLC, more than 100 µM; in the test with HL-60(TB) leukemia, 16.1 µM; with HT29 colon, more than 100 µM; with IGROV1 ovarian, 25 µM; in the test with KM12 colon, more than 100 µM. Further, the TGI in the test with M14 melanoma is more than 100 µM; in the test on MCF7 breast, more than 100 µM; in the test with NCI/ADR-RES ovarian it was 5.07 µM; in the test with SK-MEL-2 melanoma, 7.22 µM.

Consider `COC(=O)N[C@@H]1C[C@H]2CC[C@]1(O[Si](C(C)C)(C(C)C)C(C)C)C(=O)C2`, for which the TGI in the test with 786-0 renal was determined as 69 µM; in the test on EKVX NSCLC, 31.8 µM; with HL-60(TB) leukemia, 78.7 µM; with HT29 colon, 47.8 µM; in the test on IGROV1 ovarian, 32 µM; in the test with KM12 colon it was 52.1 µM. The TGI is 62.8 µM with M14 melanoma, more than 100 µM in the test on MCF7 breast, 35.4 µM in the test with NCI/ADR-RES ovarian and 35.3 µM in the test with SK-MEL-2 melanoma.

For the compound `COc1cc2nc(-c3cccs3)nc(N3CCN(c4ccccc4)CC3)c2cc1OC`, the TGI in the test with 786-0 renal, in the test with EKVX NSCLC, with HL-60(TB) leukemia, in the test with HT29 colon, in the test on IGROV1 ovarian and with KM12 colon was more than 100 µM throughout. The TGI in the test with M14 melanoma, with MCF7 breast, in the test on NCI/ADR-RES ovarian and with SK-MEL-2 melanoma was more than 100 µM each time.

Turning to `COc1cc2c3c(n(C)c(=O)c2cc1OC)-c1cc2c(cc1/C3=C\CCCCl)OCO2`, the TGI was 40 µM in the test on 786-0 renal; more than 100 µM in the test on EKVX NSCLC; more than 100 µM with HL-60(TB) leukemia; more than 100 µM in the test on HT29 colon; more than 100 µM in the test with IGROV1 ovarian; 70.1 µM in the test with KM12 colon. Also, the TGI in the test with M14 melanoma was more than 100 µM; with MCF7 breast, more than 100 µM; with NCI/ADR-RES ovarian, more than 100 µM; in the test with SK-MEL-2 melanoma it was 98.9 µM.

Take `CC1(C)CCCCCC(O)C(O)CCC(C)(C)C1=O` (centres undefined): the TGI in the test with 786-0 renal, with EKVX NSCLC, in the test on HL-60(TB) leukemia, in the test on HT29 colon, with IGROV1 ovarian and in the test on KM12 colon was more than 100 µM throughout. In addition, the TGI with M14 melanoma, with MCF7 breast, in the test on NCI/ADR-RES ovarian and in the test on SK-MEL-2 melanoma was more than 100 µM each time.

On to `OC(CCN1CCN(CCOC(c2ccccc2)c2ccccc2)CC1)c1ccccc1` (centres undefined), for which the TGI in the test with 786-0 renal was determined as 33.8 µM; in the test with EKVX NSCLC, 45.8 µM; in the test on HL-60(TB) leukemia it was 44.3 µM; in the test with HT29 colon it was 33.5 µM; in the test on IGROV1 ovarian, 59.3 µM; with KM12 colon it was 51.1 µM. In addition, the TGI stood at 34.1 µM in the test on M14 melanoma, 47.4 µM with MCF7 breast, 73.1 µM in the test on NCI/ADR-RES ovarian and 31.6 µM with SK-MEL-2 melanoma.

On to `NC1(c2cc3ccccc3s2)CCCCCC1`, for which the TGI came to 28.8 µM with 786-0 renal; 33.2 µM in the test with EKVX NSCLC; 31.5 µM in the test with HL-60(TB) leukemia; 29.3 µM in the test with HT29 colon; 32.6 µM in the test with IGROV1 ovarian; 30.5 µM in the test with KM12 colon. The TGI was 37.2 µM with M14 melanoma, 29.7 µM in the test with MCF7 breast, 33.7 µM with NCI/ADR-RES ovarian and 22.1 µM with SK-MEL-2 melanoma.

With `O=C(CSc1nc2ccc(I)cc2c(=O)n1Cc1ccccc1)Nc1ccccc1`, the TGI in the test on 786-0 renal is 23.9 µM; in the test on EKVX NSCLC it was 11.6 µM; in the test with HL-60(TB) leukemia, more than 100 µM; with HT29 colon, more than 100 µM; with IGROV1 ovarian it was more than 100 µM; in the test on KM12 colon, more than 100 µM. Besides, the TGI with M14 melanoma is more than 100 µM; with MCF7 breast it was more than 100 µM; with NCI/ADR-RES ovarian it was 93.2 µM; in the test on SK-MEL-2 melanoma it was 43.3 µM.

Regarding `N#CCCN(CCCCN(CCC#N)C(=O)Nc1ccccc1)C(=O)Nc1ccccc1`, the TGI in the test on 786-0 renal, in the test with EKVX NSCLC, in the test with HL-60(TB) leukemia, in the test on HT29 colon, in the test on IGROV1 ovarian and in the test on KM12 colon was more than 100 µM throughout. The TGI in the test on M14 melanoma, in the test with MCF7 breast, in the test with NCI/ADR-RES ovarian and in the test on SK-MEL-2 melanoma was more than 100 µM throughout.

`CCOc1ccccc1N=NC1C(=O)N(C(=O)CC(=O)Nc2ccccc2C)N=C1C` (centres undefined): the TGI is more than 100 µM with 786-0 renal; 43.7 µM in the test with EKVX NSCLC; more than 100 µM with HL-60(TB) leukemia; more than 100 µM with HT29 colon; more than 100 µM with IGROV1 ovarian; more than 100 µM with KM12 colon. In addition, the TGI with M14 melanoma, in the test with MCF7 breast, in the test on NCI/ADR-RES ovarian and in the test with SK-MEL-2 melanoma was more than 100 µM throughout.

`CC1(C)CC(=O)c2c(N)n[nH]c2C1`: the TGI in the test with 786-0 renal, in the test on EKVX NSCLC, in the test with HL-60(TB) leukemia, with HT29 colon, in the test with IGROV1 ovarian and in the test with KM12 colon was more than 100 µM in each case. The TGI with M14 melanoma, with MCF7 breast, with NCI/ADR-RES ovarian and with SK-MEL-2 melanoma was more than 100 µM each time.

These data come from PubChem BioAssay (NCI).
